Like-named read-outs stand apart in the source and are kept apart here. Marks after values point to notes of the source that are not given here. Each block holds one compound with its values, some of them ahead of it.
Experiments:
[1] = cited from earlier work
[2] = cited from earlier work; remark: listed apart in the source
[3] = protonation constant, cited from earlier work
[4] = −log [M]free when [M]total = 10^−6 M and [L]total = 10^−5 M at pH = 7.4; cited from earlier work
[5] = −log [M]free when [M]total = 10^−6 M and [L]total = 10^−5 M at pH = 7.4; cited from earlier work; remark: listed apart in the source
[6] = Ligand protonation constants by potentiometric titration; type: physicochemical; settings: protonation constant, 25.0 °C, 0.1 M KCl
pLa value = type: binding; settings: −log [M]free when [M]total = 10^−6 M and [L]total = 10^−5 M at pH = 7.4; calculated (Table S1)
pLu value = type: binding; settings: −log [M]free when [M]total = 10^−6 M and [L]total = 10^−5 M at pH = 7.4; calculated (Table S1)

Compound: Cc1cccc(C)n1 [2,6-dimethylpyridinium cation]
pKa [1]: 6.7

Compound: O=C([O-])CN1CCN(CC(=O)[O-])CCN(CC(=O)[O-])CCN(CC(=O)[O-])CC1.[Gd+3] [Gd-DOTA]
kex298 (water exchange rate constant) [2]: 4.1e+06 s⁻¹

Compound: O=C([O-])CN(CCN(CC(=O)[O-])CC(=O)O)CCN(CC(=O)[O-])CC(=O)O.[Gd+3] [Gd-DTPA]
kex298 (water exchange rate constant) [2]: 3.3e+06 s⁻¹

Compound: O=C(O)CN(CCOCCN(CC(=O)O)CC(=O)O)CC(=O)O [OBETA]
log K1 ([3]; 0.1 M KCl): 9.34^e
log K2 ([3]; 0.1 M KCl): 8.62^e
log K3 ([3]; 0.1 M KCl): 3.19^e
log K4 ([3]; 0.1 M KCl): 2.19^e
log K5 ([3]; 0.1 M KCl): 1.77^e

Compound: O=C(O)CN(CCN(CC(=O)O)Cc1cccc(C(=O)O)n1)Cc1cccc(C(=O)O)n1 [Octapa]
log K1 ([3]; 0.15 M NaCl): 8.52
log K2 ([3]; 0.15 M NaCl): 5.40
log K3 ([3]; 0.15 M NaCl): 3.65
log K4 ([3]; 0.15 M NaCl): 2.97
log K5 ([3]; 0.15 M NaCl): 1.66
log K1 ([3]; 0.16 M NaCl): 8.58
log K2 ([3]; 0.16 M NaCl): 5.43
log K3 ([3]; 0.16 M NaCl): 3.75
log K4 ([3]; 0.16 M NaCl): 3.08
log K5 ([3]; 0.16 M NaCl): 2.21
pLa [4]: 19.7
pLu [5]: 19.8

log K1 [6]: 8.72(1)
log K2 [6]: 7.81(2)
log K3 [6]: 3.09(2)
log K4 [6]: 2.35(4)
Compound: CN(CCOCCN(C)Cc1cccc(C(=O)O)n1)Cc1cccc(C(=O)O)n1 [OxyMepa, 6,6’-(((oxybis(ethane-2,1-diyl))bis(methylazanediyl))bis(methylene))dipicolinic acid]

log K1 [6]: 8.47(4)
log K2 [6]: 7.63(2)
log K3 [6]: 3.66(4)
log K4 [6]: 2.90(1)
log K5 [6]: 1.77(12)
Compound: O=C(O)CN(CCOCCN(CC(=O)O)Cc1cccc(C(=O)O)n1)Cc1cccc(C(=O)O)n1 [Oxyaapa, 6,6’-(((oxybis(ethane-2,1-diyl))bis((carboxymethyl)azanediyl))bis(methylene))dipicolinic acid]
pLa (pLa value): 18.5
pLu (pLu value): 21.1

Compound: O=C(O)CN(Cc1cccc(CN(CC(=O)O)Cc2cccc(C(=O)O)n2)n1)Cc1cccc(C(=O)O)n1 [Pypa]
pLa [4]: 19.9
pLu [5]: 22.6

Compound: O=C(O)c1ccccn1 [pyridinium-2-carboxylic acid]
pKa [1]: 5.39

Source: paper PMC8111572 (Inorganic chemistry, 2020)
